In US20260022142A1, “MACROCYCLIC IMMUNOMODULATORS” (Bristol-Myers Squibb Company, priority 2022, published 2026):
Numbered stars: 1 amine (or outer) side, 2 acyl side, 3 side chain; on linkers, the order of the positions; unused ones are H or OH. Bridge positions count the residues as written; N and C are the ends. Square brackets hold non-standard residues; d marks the D form. Peptide text beside a SMILES is read from it. * marks the point of attachment. ξ: configuration not given here. d(γGlu) = O=C(O)[C@@H](CCC(=O)[*:2])N[*:1]; Bip = N[C@@H](Cc1ccc(-c2ccccc2)cc1)C(=O)O; Phe(3-Me) = Cc1cccc(C[C@H](N)C(=O)O)c1; hArg = N=C(N)NCCCC[C@H](N)C(=O)O; Cha = N[C@@H](CC1CCCCC1)C(=O)O; Cit = NC(=O)NCCC[C@H](N)C(=O)O; Thr(3ξ) = CC(O)[C@H](N)C(=O)O; Carboxymethyl = O=C(O)C*; Orn = NCCC[C@H](N)C(=O)O; Aun = NCCCCCCCCCCC(=O)O; Dab = NCC[C@H](N)C(=O)O; AEEA = NCCOCCOCC(=O)O

Target: T1, PD-1/PD-L1 interaction (PE-labeled human PD-L1-Ig binding to Jurkat cell line over-expressing human PD-1) (Homo sapiens, UniProt Q15116)
T1 construct: expressed in transfected cells; host or cells: Jurkat
Experiment: Jurkat-PD-1 Cell Binding High-Content Screening Assay (CBA)
Assay type: cell-based
Settings: Jurkat cell line over-expressing human PD-1; PE-labeled PD-L1-Ig 20 nM final; read-out: Jurkat hPD1-PDL1 IC50
Summary of the method: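 Binding of fluorescent PD-L1-Ig (phycoerythrin on Ig tag, 20 nM final, 1 h) measured by high-content imaging of fixed, Hoechst-counterstained Jurkat-hPD-1 cells. Compound added 2 h at 37° C beforehand, in DMEM with 10% fetal calf serum.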

T1 sequence (Q15116 25-288): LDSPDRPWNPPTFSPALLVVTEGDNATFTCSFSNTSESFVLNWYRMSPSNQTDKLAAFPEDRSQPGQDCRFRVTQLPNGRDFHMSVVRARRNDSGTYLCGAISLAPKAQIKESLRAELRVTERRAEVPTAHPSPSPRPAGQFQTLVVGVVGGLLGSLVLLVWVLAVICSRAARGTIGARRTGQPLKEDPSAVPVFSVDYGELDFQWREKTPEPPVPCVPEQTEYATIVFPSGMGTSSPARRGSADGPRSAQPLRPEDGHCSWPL

| SMILES | IC50 [nM] |
| --- | --- |
| CC(C)C[C@H]1NC(=O)[C@H](CCCN)NC(=O)[C@H](Cc2ccc(O)cc2)NC(=O)[C@H](Cc2ccc(-c3ccccc3)cc2)NC(=O)[C@H](C(C)C)NC(=O)[C@H](Cc2c[nH]c3ccccc23)NC(=O)[C@H](CC(=O)O)NC(=O)[C@H](Cc2ccc(OCC(=O)O)cc2)NC(=O)[C@H](CCCCNC(=N)N)NC(=O)CSC[C@@H](C(=O)N[C@@H](CCN)C(=O)NCCCCCCCCCCC(=O)O)NC(=O)[C@H](CCC(=O)O)NC(=O)[C@H](C(C)C)NC(=O)[C@H](CC2CCCCC2)NC(=O)[C@H](CCN)NC1=O [Compound 3395] ({CH2CO}-[hArg]Y(Carboxymethyl)DWV[Bip]Y[Orn][dL][Dab][Cha]VEC[Dab][Aun]-OH; thioether N-14) | 10 |
| Cc1cccc(C[C@@H]2NC(=O)[C@H](CC(=O)O)NC(=O)[C@H](Cc3ccc(OCC(=O)O)cc3)NC(=O)[C@H](C(C)O)NC(=O)CSC[C@@H](C(=O)NCCOCCOCC(=O)NCCCCCCCCCCC(=O)O)NC(=O)[C@H](CCCNC(N)=O)NC(=O)[C@H](C(C)C)NC(=O)[C@H](CC3CCCCC3)NC(=O)[C@H](CCN)NC(=O)[C@@H](CC(C)C)NC(=O)[C@H](CCN)NC(=O)[C@H](Cc3ccc(O)cc3)NC(=O)[C@H](Cc3ccc(-c4ccccc4)cc3)NC(=O)[C@H](C(C)C)NC2=O)c1 (stereo partly drawn) [Compound 3397] ({CH2CO}-[Thr(3ξ)]Y(Carboxymethyl)D[Phe(3-Me)]V[Bip]Y[Dab][dL][Dab][Cha]V[Cit]C[AEEA][Aun]-OH; thioether N-14) | 7.4 |
| Cc1cccc(C[C@@H]2NC(=O)[C@H](CC(=O)O)NC(=O)[C@H](Cc3ccc(OCC(=O)O)cc3)NC(=O)[C@H](CCCNC(=N)N)NC(=O)CSC[C@@H](C(=O)NCCOCCOCC(=O)NCCCCCCCCCCC(=O)O)NC(=O)[C@H](CCC(N)=O)NC(=O)[C@H](C(C)C)NC(=O)[C@H](CC3CCCCC3)NC(=O)[C@H](CCN)NC(=O)[C@@H](CC(C)C)NC(=O)[C@H](CCN)NC(=O)[C@H](Cc3ccc(O)cc3)NC(=O)[C@H](Cc3ccc(-c4ccccc4)cc3)NC(=O)[C@H](C(C)C)NC2=O)c1 [Compound 3398] ({CH2CO}-RY(Carboxymethyl)D[Phe(3-Me)]V[Bip]Y[Dab][dL][Dab][Cha]VQC[AEEA][Aun]-OH; thioether N-14) | 5.8 |
| CC(C)C[C@H]1NC(=O)[C@H](CCCN)NC(=O)[C@H](CCCNC(N)=O)NC(=O)[C@H](Cc2ccc(-c3ccccc3)cc2)NC(=O)[C@H](C(C)C)NC(=O)[C@H](Cc2c[nH]c3ccccc23)NC(=O)[C@H](CC(=O)O)NC(=O)[C@H](Cc2ccc(OCC(=O)O)cc2)NC(=O)[C@H](CCCNC(=N)N)NC(=O)CSC[C@@H](C(=O)N[C@@H](CCC(=O)O)C(=O)NCCOCCOCC(=O)NCCCCCCCCCCC(=O)O)NC(=O)[C@H](C(C)O)NC(=O)[C@H](C(C)C)NC(=O)[C@H](CC2CCCCC2)NC(=O)[C@H](CCN)NC1=O (stereo partly drawn) [Compound 3399] ({CH2CO}-RY(Carboxymethyl)DWV[Bip][Cit][Orn][dL][Dab][Cha]V[Thr(3ξ)]CE[AEEA][Aun]-OH; thioether N-14) | 19.4 |
| Cc1cccc(C[C@@H]2NC(=O)[C@H](CC(=O)O)NC(=O)[C@H](Cc3ccc(OCC(=O)O)cc3)NC(=O)[C@H](CCCNC(=N)N)NC(=O)CSC[C@@H](C(=O)NCCOCCOCC(=O)N[C@H](CCC(=O)NCCCCCCCCCCC(=O)O)C(=O)O)NC(=O)[C@H](C(C)O)NC(=O)[C@H](C(C)C)NC(=O)[C@H](CC3CCCCC3)NC(=O)[C@H](CCN)NC(=O)[C@@H](CC(C)C)NC(=O)[C@H](CCCN)NC(=O)[C@H](CCCNC(N)=O)NC(=O)[C@H](Cc3ccc(-c4ccccc4)cc3)NC(=O)[C@H](C(C)C)NC2=O)c1 (stereo partly drawn) [Compound 3400] ({CH2CO}-RY(Carboxymethyl)D[Phe(3-Me)]V[Bip][Cit][Orn][dL][Dab][Cha]V[Thr(3ξ)]C[AEEA][d(γGlu)][Aun]-OH; thioether N-14) | 8.7 |
| CC(=O)NCCCC[C@@H]1NC(=O)[C@H](C(C)C)NC(=O)[C@H](CC2CCCCC2)NC(=O)[C@H](CCN)NC(=O)[C@@H](CC(C)C)NC(=O)[C@H](CCCN)NC(=O)[C@H](Cc2ccc(O)cc2)NC(=O)[C@H](Cc2ccc(-c3ccccc3)cc2)NC(=O)[C@H](C(C)C)NC(=O)[C@H](Cc2c[nH]c3ccccc23)NC(=O)[C@H](CC(=O)O)NC(=O)[C@H](Cc2ccc(OCC(=O)O)cc2)NC(=O)[C@H](CCCNC(=N)N)NC(=O)CSC[C@@H](C(=O)NCCOCCOCC(=O)N[C@H](CCC(=O)NCCCCCCCCCCC(=O)O)C(=O)O)NC1=O [Compound 3401] ({CH2CO}-RY(Carboxymethyl)DWV[Bip]Y[Orn][dL][Dab][Cha]VK(Ac)C[AEEA][d(γGlu)][Aun]-OH; thioether N-14) | 6.9 |

Now from value to compound:

| IC50 [nM] | SMILES |
| --- | --- |
| 12.8 | CC(C)C[C@H]1NC(=O)[C@H](CCCN)NC(=O)[C@H](Cc2ccc(O)cc2)NC(=O)[C@H](Cc2ccc(-c3ccccc3)cc2)NC(=O)[C@H](C(C)C)NC(=O)[C@H](Cc2c[nH]c3ccccc23)NC(=O)[C@H](CC(=O)O)NC(=O)[C@H](Cc2ccc(OCC(=O)O)cc2)NC(=O)[C@H](CCCNC(=N)N)NC(=O)CSC[C@@H](C(=O)NCCOCCOCC(=O)NCCCCCCCCCCC(=O)O)NC(=O)[C@H](C(C)O)NC(=O)[C@H](C(C)C)NC(=O)[C@H](CC2CCCCC2)NC(=O)[C@H](CCN)NC1=O (stereo partly drawn) [Compound 3393] ({CH2CO}-RY(Carboxymethyl)DWV[Bip]Y[Orn][dL][Dab][Cha]V[Thr(3ξ)]C[AEEA][Aun]-OH; thioether N-14) |
| 6.9 | Cc1cccc(C[C@@H]2NC(=O)[C@H](CC(=O)O)NC(=O)[C@H](Cc3ccc(OCC(=O)O)cc3)NC(=O)[C@H](C(C)O)NC(=O)CSC[C@@H](C(=O)NCCOCCOCC(=O)NCCCCCCCCCCC(=O)O)NC(=O)[C@H](CCC(N)=O)NC(=O)[C@H](C(C)C)NC(=O)[C@H](CC3CCCCC3)NC(=O)[C@H](CCN)NC(=O)[C@@H](CC(C)C)NC(=O)[C@H](CCN)NC(=O)[C@H](Cc3ccc(O)cc3)NC(=O)[C@H](Cc3ccc(-c4ccccc4)cc3)NC(=O)[C@H](C(C)C)NC2=O)c1 (stereo partly drawn) [Compound 3394] ({CH2CO}-[Thr(3ξ)]Y(Carboxymethyl)D[Phe(3-Me)]V[Bip]Y[Dab][dL][Dab][Cha]VQC[AEEA][Aun]-OH; thioether N-14) |
| 9.1 | Cc1cccc(C[C@@H]2NC(=O)[C@H](CC(=O)O)NC(=O)[C@H](Cc3ccc(OCC(=O)O)cc3)NC(=O)[C@H](CCCCNC(=N)N)NC(=O)CSC[C@@H](C(=O)NCCOCCOCC(=O)NCCCCCCCCCCC(=O)O)NC(=O)[C@H](CCC(N)=O)NC(=O)[C@H](C(C)C)NC(=O)[C@H](CC3CCCCC3)NC(=O)[C@H](CCN)NC(=O)[C@@H](CC(C)C)NC(=O)[C@H](CCN)NC(=O)[C@H](Cc3ccc(O)cc3)NC(=O)[C@H](Cc3ccc(-c4ccccc4)cc3)NC(=O)[C@H](C(C)C)NC2=O)c1 [Compound 3396] ({CH2CO}-[hArg]Y(Carboxymethyl)D[Phe(3-Me)]V[Bip]Y[Dab][dL][Dab][Cha]VQC[AEEA][Aun]-OH; thioether N-14) |
| 10.7 | Cc1cccc(C[C@@H]2NC(=O)[C@H](CC(=O)O)NC(=O)[C@H](Cc3ccc(O)cc3)NC(=O)[C@H](CC(N)=O)NC(=O)CSC[C@@H](C(=O)NCCCCCCCCCCC(=O)O)NC(=O)[C@H](CCCNC(N)=O)NC(=O)[C@H](C(C)C)NC(=O)[C@H](CC3CCCCC3)NC(=O)[C@H](CCN)NC(=O)[C@@H](CC(C)C)NC(=O)[C@H](CCCN)NC(=O)[C@H](Cc3ccc(O)cc3)NC(=O)[C@H](Cc3ccc(-c4ccccc4)cc3)NC(=O)[C@H](C(C)C)NC2=O)c1 [Compound 3403] ({CH2CO}-NYD[Phe(3-Me)]V[Bip]Y[Orn][dL][Dab][Cha]V[Cit]C[Aun]-OH; thioether N-14) |
